Measured values taken from patent US11286238B2, “Melatonin derivatives, method thereof, and use thereof” (Xiamen Nuokangde Biological Technology Co., Ltd., priority 2020, dated 2022).

Legend:
[1] = as disclosed in SCCS Opinion on MLT, 23 Mar. 2010; cited from earlier work
[2] = test system: B16F10 cell lines; assay: Cytotoxicity assay (CCK-8); type: cell-based; details: for Effect on cell proliferation at a low concentration / Effect on cell proliferation rate at higher concentrations: B16F10, 24 hours; for Effect on cell proliferation at a low concentration: CCK-8, absorbance 450 nm; for Effect on cell proliferation rate at higher concentrations: CCK-8, 5 mM and 10 mM
Description: B16F10 cell lines were incubated into a plate with 96 wells. After cell adherence, a Mel solution with different concentrations or a Mels solution with different concentrations was respectively added to one of the 96 wells in turn. Final concentrations of the Mel solution or the Mels solution were respectively 10 μM (10 μmol/L), 100 μM (100 μmol/L), 1 mM (1 mmol/L), 5 mM (5 mmol/L), and 10 mM (10 mmol/L). After incubating for 24 hours, CCK-8 (Cell Counting Kit-8) was added into each one of the 96 wells. Absorbance of the Mel solution and the Mels solution was measured at 450 nm.

[3] = test system: C57/B6 mice; assay: Safety verification in vivo (body weight and diet changes); parameters: species or system mouse; details: intraperitoneal
Description: To test a safety of Mels of Embodiment 1 in vivo, Mel, Mels, or saline was intraperitoneally injected into mice. Using C57/B6 mice (about 18 g), the mice were randomly divided into three groups: a control group, a Mel group, and a Mels group. Then, 200 μL of normal saline, Mel and Mels solution (dissolving Mel and Mels in saline containing 5% DMSO, 10 mmol/L) were respectively intraperitoneally injected into the mice. The injection process was repeated three times at days 2, 6, and 10, and body weight changes and diet changes of mice were recorded. […] In short, Mels has lower toxicity and good safety in vitro and in vivo.

[4] = Solubility determination in water; type: physicochemical
Description: In order to evaluate solubility of a new melatonin derivative of Embodiment 1, solubility of Mel and Mels were tested. […] Therefore, the solubility of Mels is nearly 700 times (695 times) the solubility of Mel (FIG. 4). Good water solubility of Mels can greatly improve application and greatly contribute to the research of this molecule in the field of medicine and biology.

[5] = test system: mice; assay: Sleep experiment in sodium pentobarbital mouse sleep models; type: in vivo
Description: Mouse sleep models were established by injecting 300 μL 1% sodium pentobarbital solution into mice, and then dividing the mice into three groups. Each group comprised five mice. A first group of the three groups were injected with 100 μL normal saline as a control group, a second group of the three groups were injected with 100 μL natural unmodified melatonin (Mel) solution, a concentration of Mel was 86 μM (86 μmol/L) or 860 nM (860 nmol/L), and a third group of the three groups was injected with modified melatonin (Mels) solution with the same concentration and volume as that of the second group. A sleep duration began to be recorded one minute after a loss of righting reflex, and recording ended when the righting reflex returned.

SMILES | Solubility in 100 mL water [1] [g] | Effect on cell proliferation at a low concentration [2] | Effect on cell proliferation rate at higher concentrations [2] | Effect on body weights and diets of the mice ([3]; 200 μL of 10 mmol/L in saline with 5% DMSO, days 2, 6 and 10, versus control group and Mel group) | Safety in vivo ([3]; C57/B6 mice, 10 mmol/L, 200 μL, three injections) | solubility ([4]; in 100 mL water) [mg/mL] | Solubility of Mels relative to solubility of Mel ([4]; water solubility ratio versus melatonin) [times] | Sleep time of mice ([5]; mice given 300 μL 1% sodium pentobarbital, 100 μL of 86 μM or 860 nM solution injected, prolonged from 1 hour) [h] | Effect on sleep compared with Mel ([5]; same concentration and volume as Mel (86 μM or 860 nM, 100 μL)) | Cytotoxicity on cells compared with Mel ([2]; B16F10, at an even higher concentration)
COc1ccc2[nH]cc(CCNC(C)=O)c2c1 [Mel, melatonin] | 0.2 | no effects on cell proliferation | affected cell proliferation rate |  |  |  |  |  |  | 
COc1ccc2c(c1)c(CCNC(C)=O)cn2CCCCS(=O)(=O)[O-].[Na+] [Mels, 4-(3-(2-acetamidoethyl)-5-methoxy-1H-indol-1-yl) butane-1-sulfonate] |  | no effects on cell proliferation | little affected on cell proliferation rate | no significant effect | good safety in vivo | 1600 | 695 | 3 | same effect as Mel | much smaller than that of Mel
